Experimental data published in US20260356840A1, “[1,2,4]TRIAZOLO[1,5-A]PYRIMIDINONE WRN INHIBITORS” (Nimbus Wadjet, Inc., priority 2023, published 2026).

Target: T1, human Werner helicase (Uniprot Q14191, amino acids 517-1235 with L1074F point mutation), WRN-BV08 (Homo sapiens, UniProt Q14191, L1074F)
T1 construct: Uniprot Q14191, amino acids 517-1235 with L1074F point mutation; TEV cleavable 8xHis tag (C, cleaved yes); made in house; host or cells: Sf9 insect cells (baculovirus, pFastBac)
Assay: WRN (BV08) ADP-Glo Assay
Type: biochemical
Method: DNA duplex was synthesized at BGI (Shenzhen, China) and was composed of strand 1 with the sequence 5′-[…]-3′ (SEQ ID NO.: 1) and strand 2 with the sequence 5′-[…]-3′ (SEQ ID NO.: 2). DNA strands were annealed by heating to 95 °C for 5 minutes followed by slow cooling to room temperature. […] DMSO (0.1 μl) was added to columns 12, rows A-H and column 24, rows I-P for the maximum signal control.
Where RLU=relative luminescence units, sample=signal in sample well, and MIN and MAX are the respective minimum and maximum signal controls. • Four-parameter IC50 fit equation:
Y=Bottom+(Top−Bottom)/(1+(IC50/X)^Hill Slope)
Where top and bottom are normally allowed to float but may be fixed at 100 or 0 respectively in a 3-parameter fit. Y is the % inhibition and X is the compound concentration.
Molecular Biology and virus production. […] The baculovirus from the expression plasmid WRN-BV08 was generated from transfection and amplification following the manufacturer's instructions.
Sf9 cells grown in SF900II media were infected with 1:200 WRN-BV08 P2 virus and incubated for protein expression for 72 h at 27 °C. The WRN protein was purified using the following protocol. The cell pellets were thawed and resuspended in buffer A (50 mM Tris, pH 7.5, 500 mM NaCl, 1 mM TCEP, 10% Glycerol) supplemented with 0.5% CHAPS, 1 mM [COMPOUND LEFT OUT], 1 μg/ml Leupeptin, 1 μg/ml Pepstatin, and the Pierce Universal Nuclease and cocktail tablet. Cleared lysates were loaded onto a Ni Sepharose™ excel column and washed with buffer A and bound protein was eluted with buffer A supplemented with 300 mM imidazole. The eluted protein was dialyzed against buffer A and digested by His-tagged TEV (1:5 ratio) overnight at 4 °C. […] Untagged WRN protein was eluted from the column with buffer A supplemented with 20 mM imidazole, dialyzed overnight into buffer B (50 mM Tris, pH 7.5, 1 mM TCEP, 10% Glycerol) supplemented with 150 mM NaCl and loaded onto a Heparin column. Proteins were eluted with a step gradient of buffer B supplemented with 150 mM, 200 mM, 300 mM and 500 mM NaCl.

T1 sequence (Q14191 517-1235 L1074F): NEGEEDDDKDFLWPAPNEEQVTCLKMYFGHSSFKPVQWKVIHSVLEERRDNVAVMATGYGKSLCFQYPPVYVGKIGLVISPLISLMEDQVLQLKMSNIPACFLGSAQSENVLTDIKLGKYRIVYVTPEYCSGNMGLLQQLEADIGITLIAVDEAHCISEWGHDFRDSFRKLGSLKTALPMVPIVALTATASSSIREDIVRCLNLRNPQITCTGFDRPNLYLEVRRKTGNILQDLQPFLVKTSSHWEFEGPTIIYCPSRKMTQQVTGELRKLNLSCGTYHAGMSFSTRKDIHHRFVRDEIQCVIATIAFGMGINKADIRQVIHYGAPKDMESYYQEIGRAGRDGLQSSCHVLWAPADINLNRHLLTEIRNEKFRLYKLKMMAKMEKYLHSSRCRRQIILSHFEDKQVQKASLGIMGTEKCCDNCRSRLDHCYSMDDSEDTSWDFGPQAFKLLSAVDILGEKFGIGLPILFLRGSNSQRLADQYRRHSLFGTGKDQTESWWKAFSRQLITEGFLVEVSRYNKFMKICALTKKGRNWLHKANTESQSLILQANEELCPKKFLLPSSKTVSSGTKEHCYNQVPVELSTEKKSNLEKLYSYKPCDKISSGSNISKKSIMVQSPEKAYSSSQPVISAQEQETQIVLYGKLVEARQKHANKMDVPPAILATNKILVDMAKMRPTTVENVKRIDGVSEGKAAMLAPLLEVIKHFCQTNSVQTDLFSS

Row | IC50 [nM] | Compound
1 | 5 to 50 | CCc1c(N2CCN(C(=O)c3ccnc4cccnc34)CC2)c(=O)n2nc(C3=CCOCC3)nc2n1CC(=O)Nc1ccc(C(F)(F)F)cc1Cl [Compound I-37, N-[2-chloro-4-(trifluoromethyl)phenyl]-2-[2-(3,6-dihydro-2H-pyran-4-yl)-5-ethyl-6-[4-(1,5-naphthyridine-4-carbonyl)piperazin-1-yl]-7-oxo-4H,7H-[1,2,4]triazolo[1,5-a]pyrimidin-4-yl]acetamide]
2 | 5 to 50 | CCc1c(N2CCN(C(=O)c3cnn(C)c3)CC2)c(=O)n2nc(-c3ccnc(OC)n3)nc2n1CC(=O)Nc1ccc(C(F)(F)F)cc1Cl [Compound I-64, N-[2-chloro-4-(trifluoromethyl)phenyl]-2-[5-ethyl-2-(2-methoxypyrimidin-4-yl)-6-[4-(1-methyl-1H-pyrazole-4-carbonyl)piperazin-1-yl]-7-oxo-4H,7H-[1,2,4]triazolo[1,5-a]pyrimidin-4-yl]acetamide]
3 | < 5 | CCc1c(N2CCN(C(=O)c3nocc3O)CC2)c(=O)n2nc(C3=CCOCC3)nc2n1CC(=O)Nc1ccc(C(F)(F)F)cc1Cl [Compound I-29, N-[2-chloro-4-(trifluoromethyl)phenyl]-2-[2-(3,6-dihydro-2H-pyran-4-yl)-5-ethyl-6-[4-(4-hydroxy-1,2-oxazole-3-carbonyl)piperazin-1-yl]-7-oxo-4H,7H-[1,2,4]triazolo[1,5-a]pyrimidin-4-yl]acetamide]
4 | 5 to 50 | CCc1c(N2CCN(C(=O)c3cc(C)no3)CC2)c(=O)n2nc(-c3ccnc(OC)c3)nc2n1CC(=O)Nc1ccc(C(F)(F)F)cc1Cl [Compound I-65, N-[2-chloro-4-(trifluoromethyl)phenyl]-2-[5-ethyl-2-(2-methoxypyridin-4-yl)-6-[4-(3-methyl-1,2-oxazole-5-carbonyl)piperazin-1-yl]-7-oxo-4H,7H-[1,2,4]triazolo[1,5-a]pyrimidin-4-yl]acetamide]
5 | 50 to 100 | CCc1c(N2CCN(C(=O)C(C)(C)C#N)CC2)c(=O)n2nc(C3=CCOCC3)nc2n1CC(=O)Nc1ccc(C(F)(F)F)cc1Cl [Compound I-31, N-[2-chloro-4-(trifluoromethyl)phenyl]-2-{6-[4-(2-cyano-2,2-dimethylacetyl)piperazin-1-yl]-2-(3,6-dihydro-2H-pyran-4-yl)-5-ethyl-7-oxo-4H,7H-[1,2,4]triazolo[1,5-a]pyrimidin-4-yl}acetamide]
6 | 5 to 50 | CCc1c(N2CCN(C(=O)c3ccnn3C)CC2)c(=O)n2nc(-c3ccnc(OC)c3)nc2n1CC(=O)Nc1ccc(C(F)(F)F)cc1Cl [Compound I-66, N-[2-chloro-4-(trifluoromethyl)phenyl]-2-[5-ethyl-2-(2-methoxypyridin-4-yl)-6-[4-(1-methyl-1H-pyrazole-5-carbonyl)piperazin-1-yl]-7-oxo-4H,7H-[1,2,4]triazolo[1,5-a]pyrimidin-4-yl]acetamide]
7 | < 5 | CCc1c(N2CCN(C(=O)c3ncc4c(c3O)OCC4)CC2)c(=O)n2nc(-c3ccnc(OC)c3)nc2n1CC(=O)Nc1ccc(C(F)(F)F)cc1Cl [Compound I-86, N-[2-chloro-4-(trifluoromethyl)phenyl]-2-[5-ethyl-6-(4-{7-hydroxy-2H,3H-furo[3,2-c]pyridine-6-carbonyl}piperazin-1-yl)-2-(2-methoxypyridin-4-yl)-7-oxo-4H,7H-[1,2,4]triazolo[1,5-a]pyrimidin-4-yl]acetamide]
8 | 5 to 50 | CCc1c(N2CCN(C(=O)c3nnc(C)s3)CC2)c(=O)n2nc(C3=CCOCC3)nc2n1CC(=O)Nc1ccc(C(F)(F)F)cc1Cl [Compound I-41, N-[2-chloro-4-(trifluoromethyl)phenyl]-2-[2-(3,6-dihydro-2H-pyran-4-yl)-5-ethyl-6-[4-(5-methyl-1,3,4-thiadiazole-2-carbonyl)piperazin-1-yl]-7-oxo-4H,7H-[1,2,4]triazolo[1,5-a]pyrimidin-4-yl]acetamide]
9 | 5 to 50 | CCc1c(N2CCN(C(=O)c3cnc(C)o3)CC2)c(=O)n2nc(-c3ccnc(OC)c3)nc2n1CC(=O)Nc1ccc(C(F)(F)F)cc1Cl [Compound I-67, N-[2-chloro-4-(trifluoromethyl)phenyl]-2-[5-ethyl-2-(2-methoxypyridin-4-yl)-6-[4-(2-methyl-1,3-oxazole-5-carbonyl)piperazin-1-yl]-7-oxo-4H,7H-[1,2,4]triazolo[1,5-a]pyrimidin-4-yl]acetamide]
10 | 50 to 100 | CCc1c(N2CCC3C2CCN3C(=O)c2cnn(C)c2)c(=O)n2nc(C3=CCOCC3)nc2n1CC(=O)Nc1ccc(C(F)(F)F)cc1Cl (stereo not drawn) [Compound I-68, N-[2-chloro-4-(trifluoromethyl)phenyl]-2-[2-(3,6-dihydro-2H-pyran-4-yl)-5-ethyl-6-[4-(1-methyl-1H-pyrazole-4-carbonyl)-octahydropyrrolo[3,2-b]pyrrol-1-yl]-7-oxo-4H,7H-[1,2,4]triazolo[1,5-a]pyrimidin-4-yl]acetamide]
11 | 5 to 50 | CCc1c(N2CCN(C(=O)c3cc(C)ns3)CC2)c(=O)n2nc(-c3ccnc(OC)c3)nc2n1CC(=O)Nc1ccc(C(F)(F)F)cc1Cl [Compound I-76, N-[2-chloro-4-(trifluoromethyl)phenyl]-2-[5-ethyl-2-(2-methoxypyridin-4-yl)-6-[4-(3-methyl-1,2-thiazole-5-carbonyl)piperazin-1-yl]-7-oxo-4H,7H-[1,2,4]triazolo[1,5-a]pyrimidin-4-yl]acetamide]
12 | 5 to 50 | CCc1c(N2CCN(C(=O)c3cnn(C)c3)CC2)c(=O)n2nc(C3=CCOCC3)nc2n1CC(=O)Nc1ccc(C(F)(F)F)cc1Cl [Compound I-23, N-[2-chloro-4-(trifluoromethyl)phenyl]-2-[2-(3,6-dihydro-2H-pyran-4-yl)-5-ethyl-6-[4-(1-methyl-1H-pyrazole-4-carbonyl)piperazin-1-yl]-7-oxo-4H,7H-[1,2,4]triazolo[1,5-a]pyrimidin-4-yl]acetamide]
13 | 5 to 50 | CCc1c(N2CCN(C(=O)c3c(O)cncc3F)CC2)c(=O)n2nc(C3=CCOCC3)nc2n1CC(=O)Nc1ccc(C(F)(F)F)cc1Cl [Compound I-9, N-[2-chloro-4-(trifluoromethyl)phenyl]-2-[2-(3,6-dihydro-2H-pyran-4-yl)-5-ethyl-6-[4-(3-fluoro-5-hydroxypyridine-4-carbonyl)piperazin-1-yl]-7-oxo-4H,7H-[1,2,4]triazolo[1,5-a]pyrimidin-4-yl]acetamide]
14 | 5 to 50 | CCc1c(N2CCN(C(=O)c3ncnc(C)c3O)CC2)c(=O)n2nc(-c3ccnc(OC)c3)nc2n1CC(=O)Nc1ccc(C(F)(F)F)cc1Cl [Compound I-21, N-[2-chloro-4-(trifluoromethyl)phenyl]-2-{5-ethyl-6-[4-(5-hydroxy-6-methylpyrimidine-4-carbonyl)piperazin-1-yl]-2-(2-methoxypyridin-4-yl)-7-oxo-4H,7H-[1,2,4]triazolo[1,5-a]pyrimidin-4-yl}acetamide]
15 | 5 to 50 | CCc1c(N2CCN(C(=O)c3cnn(C)c3)CC2)c(=O)n2nc(-c3ccnc(OC)c3)nc2n1CC(=O)Nc1ccc(S(F)(F)(F)(F)F)cc1Cl [Compound I-82, N-[2-chloro-4-(pentafluoro-lambda6-sulfanyl)phenyl]-2-[5-ethyl-2-(2-methoxypyridin-4-yl)-6-[4-(1-methyl-1H-pyrazole-4-carbonyl)piperazin-1-yl]-7-oxo-4H,7H-[1,2,4]triazolo[1,5-a]pyrimidin-4-yl]acetamide]
16 | 5 to 50 | CCc1c(N2CCN(C(=O)c3nn(C)cc3O)CC2)c(=O)n2nc(C3=CCOCC3)nc2n1CC(=O)Nc1ccc(C(F)(F)F)cc1Cl [Compound I-12, N-[2-chloro-4-(trifluoromethyl)phenyl]-2-[2-(3,6-dihydro-2H-pyran-4-yl)-5-ethyl-6-[4-(4-hydroxy-1-methyl-1H-pyrazole-3-carbonyl)piperazin-1-yl]-7-oxo-4H,7H-[1,2,4]triazolo[1,5-a]pyrimidin-4-yl]acetamide]
17 | 5 to 50 | CCc1c(N2CCN(C(=O)c3cccc4cccnc34)CC2)c(=O)n2nc(C3=CCOCC3)nc2n1CC(=O)Nc1ccc(C(F)(F)F)cc1Cl [Compound I-19, N-[2-chloro-4-(trifluoromethyl)phenyl]-2-[2-(3,6-dihydro-2H-pyran-4-yl)-5-ethyl-7-oxo-6-[4-(quinoline-8-carbonyl)piperazin-1-yl]-4H,7H-[1,2,4]triazolo[1,5-a]pyrimidin-4-yl]acetamide]
18 | 5 to 50 | CCc1c(N2CCN(C(=O)c3cccc(C)c3O)CC2)c(=O)n2nc(C3=CCOCC3)nc2n1CC(=O)Nc1ccc(C(F)(F)F)cc1Cl [Compound I-3, N-[2-chloro-4-(trifluoromethyl)phenyl]-2-[2-(3,6-dihydro-2H-pyran-4-yl)-5-ethyl-6-[4-(2-hydroxy-3-methylbenzoyl)piperazin-1-yl]-7-oxo-4H,7H-[1,2,4]triazolo[1,5-a]pyrimidin-4-yl]acetamide]
